What all share (experiment): Cell survival / percentage killing of a culture exposed to an agent (viable counts)
In one experiment the test system is MRSA strain S13. The class given is cell-based, Methicillin Resistant Staphylococcus aureus. The conditions noted are these: for Percentage of cells killed after 5 minutes exposure, MRSA (S13): 0.5% lauric acid Na salt and/or 0.25% Parabens Na salt, sodium salt. Here is the method:
(§1) Determination of the Cell Counts
(§2) This was achieved by a number of different techniques depending on the circumstances involved. The techniques used were:
(§3) 1. Standard spread plate technique
(§4) This involves spreading a 100 μl aliquot of the desired dilution onto well dried agar plates using an alcohol flamed hockey stick.
(§5) In this method 1 ml samples of the diluted culture are placed into a sterile petri dish and then sterile cooled agar is added. The plate is then gently swirled to facilitate a […] mixing of the sample and the agar and allowed to solidify before being incubated at the temperature of choice in an inverted manner.
(§6) 3. Spot/drop plating method
(§7) This method involves the placing of a sample or the diluted sample onto a pre-dried agar plate but the sample is allowed to dry into the plate. Usually an aliquot of 5-20 μl is chosen to be thus plated. This method offers the advantages of being both economical in terms of agar plates (several drops can be readily accommodated on one agar plate) and also accurate.
(§8) All plates were incubated for 16 hours before being counted.
(§9) All dilutions were carried out in ¼×Ringers solution and all bacteria were grown up in Tryptic Soy Broth (TSB)
(§10) Determination of the cell survival/percentage killing of a culture with respect to exposure to a given agent.
(§11) In this method a sample of a fresh overnight culture was titred and a sample (usually 5 mls) was added to either broth (100mls) containing the test reagents or sterile water (100 mls) and test agents.
(§12) Immediately a sample (T0) was taken and plated using one of the techniques listed above. At regular intervals thereafter other samples were also removed, diluted and plated.
(§13) Error is 1 standard deviation of the mean.

In the next experiment the test system is E. coli (lab isolate). The class given is cell-based, Escherichia coli. The conditions noted are these: 0.5% lauric acid Na salt and/or 0.25% Parabens Na salt. Here is the method:
as §1, §2, §3, §4, §5, §6, §7, §8, §9
Determination of the cell survival/percentage killing of a culture with respect to exposure to a given agent. […]

The subject of experiment [1] is Ps. aeruginosa (lab isolate). The class given is cell-based, Pseudomonas aeruginosa. The conditions noted are these: for Percentage of cells killed after 5 minutes exposure, Ps. aeruginosa: 0.5% lauric acid Na salt and/or 0.25% Parabens Na salt, sodium salt. The protocol: as §1, §2, §3, §4, §5, §6, §7, §8, §9, §10, §11, §12, §13
Experiment [2] deals with Vancomycin-resistant Enterococci. The class given is cell-based, Enterococcus. The conditions noted are these: for killing effect / mode of action on Vancomycin-resistant Enterococci (in words): methyl/propyl paraben Na salt 0.25% (w/v) (1:1) and/or lauric acid Na salt 0.50% (w/v), sodium salt. The protocol: as §1, §2, §3, §4, §5, §6, §7, §8, §9, §10, §11, §12, §13

Setting [3] is: methyl/propyl paraben Na salt 0.25% (w/v) (1:1) and/or lauric acid Na salt 0.50% (w/v).

In the case of `CCCCCCCCCCCC(=O)[O-].[Na+]` [lauric acid Na salt, lauric acid sodium salt], in the experiment with MRSA strain S13 (0.50% lauric acid Na salt, isolate S13 in water held at 37° C., over 2 hrs), the “reduction of a population of MRSA” value is 99.8%. Moreover, the “killing of MRSA” value in the experiment with MRSA strain S13 (0.50% lauric acid Na salt, repeated experiment, after 30 mins) is 99.6%; in the experiment on MRSA strain S13 (1.75% lauric acid Na salt, isolate S13, over 2 hrs), less than 99.0%. Also, the “Percentage of cells killed after 5 minutes exposure, MRSA (S13)” value with MRSA strain S13 (listed as lauric acid) is “more than 97”; in the experiment with MRSA strain S13, greater than 97. In addition, the “killing effect / mode of action on MRSA isolate S13 (in words)” value in the experiment on MRSA strain S13 (setting [3]) is “does elicit killing effect”. The “Percentage of cells killed after 5 minutes exposure, E. coli” value in the experiment with E. coli (lab isolate) is on record as greater than 90. Besides, the “Percentage of cells killed after 5 minutes exposure, Ps. aeruginosa” value in experiment [1] (listed as lauric acid) is on record as 13; in experiment [1], greater than 13. Besides, the “killing effect / mode of action on Ps. aeruginosa (in words)” value in experiment [1] (setting [3]) was “not effective”. The “Percentage of cells killed after 5 minutes exposure, Vancomycin Resistant Enterococcus” value in experiment [2] (5 minutes, 0.5% lauric acid Na salt and/or 0.25% Parabens Na salt) turned out to be 100. Besides, the kill rate in experiment [2] (after 5 mins) turned out to be 100%. Moreover, the “survivors present when samples were plated” value in experiment [2] (after 5 mins, T0 count 4.63×10^7 cfu/ml) is given as “no survivors”; in experiment [2] (strain FPL050, after 5 mins), “no survivors”. In addition, the “killing effect / mode of action on Vancomycin-resistant Enterococci (in words)” value in experiment [2] (listed as Lauric acid Na salt) was “bactericidal”; in experiment [2] (listed as lauric acid) it was “totally destroyed”.

These data come from patent US6461624B2, “Skin-protective composition” (priority 1997, dated 2002).
